US4444769A, “Antihypertensive diuretic combination composition and associated method” (Mylan Pharmaceuticals, Inc., priority 1983, dated 1984)

Experiments:
[1] = administration of 100 mg; differently formulated compositions; cited from earlier work
[2] = system: hypertensive individuals who had become hypokalemic
Method: In an effort to determine the minimum amount of triamterene needed to reverse the hypokalemia precipitated by hydrochlorothiazide, each subject was continued on hydrochlorothiazide, 50 mg/day administered in a separate tablet, and was also given one of the following daily dosages of triamterene, administered in suspension form throughout the testing period: 0 mg, 25 mg, 50 mg, 75 mg, and 100 mg.

In the case of `Nc1nc(N)c2nc(-c3ccccc3)c(N)nc2n1` [triamterene, 2,4,7-triamino-6-phenylpteridine], the “limit in absorptive capacity of the gastrointestinal tract, mean” value [1] is listed as about 39%, the “reversal of hydrochlorothiazide-induced hypokalemia, response” value ([2]; about 75 mg triamterene with 50 mg hydrochlorothiazide) is listed as “near maximal response” and the “effectiveness for reversing hydrochlorothiazide-induced hypokalemia” value ([2]; upper ranges of the doses tested) is listed as “particularly large in the upper ranges of the doses tested”.
